Calls of active or inactive are those of the source. The calls are words filed in the database; no cut-off is given here.
Tests used:
MIN6 [1] = experiment: Cytotoxicity against mouse MIN6 cells assessed as cell viability at 20 uM equiv. LSF measured after 48 hrs by MTT assay; format: cell-based; conditions: min6, 48 h
Erythrocyte = experiment: Induction of hemolysis in Wistar rat RBC at 20 uM equiv. LSF measured after 1 hr by spectrophotometric method; format: cell-based
[2] = Drug uptake in mouse MIN6 cells assessed as lisofylline-level in cell lysates at 20 uM equiv. LSF measured after 6 hrs by HPLC analysis; format: ADME, subcellular; conditions: min6, 6 h
MIN6 [3] = experiment: Cytoprotective activity against cytokine-mediated cytotoxicity in mouse MIN6 cells assessed as increase in cell viability at 20 uM equiv. LSF incubated for 48 hrs in presence of cocktail of cytokines TNF-alpha/IL-1-beta/IFN-gamma by MTT assay; format: functional, cell-based
[4] = Initial plasma concentration in Wistar rat at 30 mg/kg, iv by HPLC analysis; format: ADME, organism-based
[5] = Half life in Wistar rat at 30 mg/kg, iv measured after 24 hrs by HPLC analysis; format: ADME, organism-based; conditions: in vivo; for half-life: Wistar
[6] = AUC (0 to t) in Wistar rat at 30 mg/kg, iv measured after 24 hrs by HPLC analysis; format: ADME, organism-based; parameters: route intravenous, time 24 hrs, dose 30 mg/kg; conditions: in vivo
[7] = AUC (0 to infinity) in Wistar rat at 30 mg/kg, iv by HPLC analysis; format: ADME, organism-based; parameters: time infinity, route intravenous, dose 30 mg/kg; conditions: in vivo; for AUC(0-inf): Wistar
[8] = AUMC (0 to t) in Wistar rat at 30 mg/kg, iv measured after 24 hrs by HPLC analysis; format: ADME, organism-based; conditions: in vivo
[9] = AUMC (0 to infinity) in Wistar rat at 30 mg/kg, iv by HPLC analysis; format: ADME, organism-based; conditions: in vivo
[10] = MRT in Wistar rat at 30 mg/kg, iv measured after 24 hrs by HPLC analysis; format: ADME, organism-based; conditions: in vivo
[11] = Volume of distribution in Wistar rat at 30 mg/kg, iv measured after 24 hrs by HPLC analysis; format: ADME, organism-based; conditions: in vivo
Rattus norvegicus [12] = experiment: Antidiabetic activity against STZ-induced diabetic Wistar rat model assessed as increase in plasma insulin level at 30 mg/kg, ip administered once daily for 5 weeks and measured after 3 to 5 weeks; format: functional, organism-based; conditions: time 3-5 weeks
Rattus norvegicus [13] = experiment: Protection against STZ-induced oxidative stress-mediated liver toxicity in Wistar rat assessed as reduction in plasma ALAT level at 30 mg/kg, ip administered once daily for 5 weeks measured after 3 to 5 weeks; format: functional, organism-based; conditions: time 3-5 weeks
Rattus norvegicus [14] = experiment: Protection against STZ-induced oxidative stress-mediated liver toxicity in Wistar rat assessed as reduction in plasma ASAT level at 30 mg/kg, ip administered once daily for 5 weeks measured after 3 to 5 weeks; format: functional, organism-based; conditions: time 3-5 weeks
Rattus norvegicus [15] = experiment: Protection against STZ-induced renal toxicity in Wistar rat assessed as reduction in plasma uric acid level at 30 mg/kg, ip administered once daily for 5 weeks measured after 3 to 5 weeks; format: functional, organism-based; conditions: time 3-5 weeks
Rattus norvegicus [16] = experiment: Protection against STZ-induced dyslipidemia in Wistar rat assessed as reduction in plasma triglyceride level at 30 mg/kg, ip administered once daily for 5 weeks measured after 3 to 5 weeks; format: functional, organism-based; conditions: time 3-5 weeks
Rattus norvegicus [17] = experiment: Protection against STZ-induced dyslipidemia in Wistar rat assessed as reduction in plasma cholesterol level at 30 mg/kg, ip administered once daily for 5 weeks measured after 3 to 5 weeks; format: functional, organism-based; conditions: time 3-5 weeks
Rattus norvegicus [18] = experiment: Protection against STZ-induced pancreatic beta cell destruction in Wistar rat assessed as proper arrangement of islets at 30 mg/kg, ip administered once daily for 5 weeks and measured on day 35 by Hematoxylin and eosin staining based analysis; format: functional, organism-based
Albumin [19] = molecular target: T1, Albumin (Bos taurus, UniProt P02769); experiment: Binding affinity to bovine serum albumin assessed as decrease in fluorescence intensity measured after 30 mins by fluorescence quenching method; format: ADME; conditions: cattle, isolated protein, 0.5 h
[20] = Elimination rate constant in Wistar rat at 30 mg/kg,iv measured after 24 hrs by HPLC analysis; format: ADME, organism-based; conditions: in vivo
Rattus norvegicus [21] = experiment: Protection against STZ-induced inflammation in Wistar rat assessed as reduction in CD4+ T-cell infiltration into pancreatic islets at 30 mg/kg, ip administered once daily for 5 weeks and measured on day 35 by […] based analysis; format: functional, organism-based
Rattus norvegicus [22] = experiment: Protection against STZ-induced inflammation in Wistar rat assessed as reduction in CD8+ T-cell infiltration into pancreatic islets at 30 mg/kg, ip administered once daily for 5 weeks and measured on day 35 by […] based analysis; format: functional, organism-based
[23] = Aggregation property of the compound assessed as critical micelle concentration by fluorescence based analysis; format: physicochemical
Rattus norvegicus [24] = experiment: Antidiabetic activity against STZ-induced diabetic Wistar rat model assessed as decrease in fasting blood glucose level at 30 mg/kg, ip administered once daily for 5 weeks and measured after 3 weeks by glucometric analysis; format: functional, organism-based
Rattus norvegicus [25] = experiment: Antidiabetic activity against STZ-induced diabetic Wistar rat model assessed as decrease in fasting blood glucose level at 30 mg/kg, ip administered once daily for 5 weeks and measured after 5 weeks by glucometric analysis; format: functional, organism-based
[26] = Clearance in Wistar rat at 30 mg/kg, iv measured after 24 hrs by HPLC analysis; format: ADME, organism-based; conditions: in vivo
Albumin [27] = molecular target: T1, Albumin; experiment: Binding affinity to bovine serum albumin assessed as bathochromic peak shift measured after 30 mins by fluorescence quenching method; format: ADME; conditions: cattle, isolated protein, 0.5 h
Rattus norvegicus [28] = experiment: Antidiabetic activity against STZ-induced diabetic Wistar rat model assessed as decrease in mortality at 30 mg/kg, ip administered once daily for 5 weeks; format: functional, organism-based
[29] = Initial plasma concentration in Wistar rat at 15 mg/kg, iv by HPLC analysis; format: ADME, organism-based
[30] = Half life in Wistar rat at 15 mg/kg, iv measured after 24 hrs by HPLC analysis; format: ADME, organism-based; conditions: in vivo
[31] = AUC (0 to t) in Wistar rat at 15 mg/kg, iv measured after 24 hrs by HPLC analysis; format: ADME, organism-based; parameters: route intravenous, dose 15 mg/kg, time 24 hrs; conditions: in vivo
[32] = AUC (0 to infinity) in Wistar rat at 15 mg/kg, iv by HPLC analysis; format: ADME, organism-based; parameters: time infinity, route intravenous, dose 15 mg/kg; conditions: in vivo
[33] = AUMC (0 to t) in Wistar rat at 15 mg/kg, iv measured after 24 hrs by HPLC analysis; format: ADME, organism-based; conditions: in vivo
[34] = AUMC (0 to infinity) in Wistar rat at 15 mg/kg, iv by HPLC analysis; format: ADME, organism-based; conditions: in vivo
[35] = MRT in Wistar rat at 15 mg/kg, iv measured after 24 hrs by HPLC analysis; format: ADME, organism-based; conditions: in vivo
[36] = Volume of distribution in Wistar rat at 15 mg/kg, iv measured after 24 hrs by HPLC analysis; format: ADME, organism-based; conditions: in vivo
[37] = Clearance in Wistar rat at 15 mg/kg, iv measured after 24 hrs by HPLC analysis; format: ADME, organism-based; conditions: in vivo
[38] = Elimination rate constant in Wistar rat at 15 mg/kg,iv measured after 24 hrs by HPLC analysis; format: ADME, organism-based; conditions: in vivo
Rattus norvegicus [39] = experiment: Antidiabetic activity against STZ-induced diabetic Wistar rat model assessed as decrease in fasting blood glucose level at 15 mg/kg, ip administered once daily for 5 weeks and measured after 3 weeks by glucometric analysis; format: functional, organism-based
Rattus norvegicus [40] = experiment: Antidiabetic activity against STZ-induced diabetic Wistar rat model assessed as decrease in fasting blood glucose level at 15 mg/kg, ip administered once daily for 5 weeks and measured after 5 weeks by glucometric analysis; format: functional, organism-based
Rattus norvegicus [41] = experiment: Protection against STZ-induced pancreatic beta cell destruction in Wistar rat assessed as proper arrangement of islets at 15 mg/kg, ip administered once daily for 5 weeks and measured on day 35 by Hematoxylin and eosin staining based analysis; format: functional, organism-based
[42] = Prodrug release in rat plasma assessed as intact parent compound remaining measured after 72 hrs by HPLC analysis; format: ADME, cell-free

T1 sequence (P02769 whole entry): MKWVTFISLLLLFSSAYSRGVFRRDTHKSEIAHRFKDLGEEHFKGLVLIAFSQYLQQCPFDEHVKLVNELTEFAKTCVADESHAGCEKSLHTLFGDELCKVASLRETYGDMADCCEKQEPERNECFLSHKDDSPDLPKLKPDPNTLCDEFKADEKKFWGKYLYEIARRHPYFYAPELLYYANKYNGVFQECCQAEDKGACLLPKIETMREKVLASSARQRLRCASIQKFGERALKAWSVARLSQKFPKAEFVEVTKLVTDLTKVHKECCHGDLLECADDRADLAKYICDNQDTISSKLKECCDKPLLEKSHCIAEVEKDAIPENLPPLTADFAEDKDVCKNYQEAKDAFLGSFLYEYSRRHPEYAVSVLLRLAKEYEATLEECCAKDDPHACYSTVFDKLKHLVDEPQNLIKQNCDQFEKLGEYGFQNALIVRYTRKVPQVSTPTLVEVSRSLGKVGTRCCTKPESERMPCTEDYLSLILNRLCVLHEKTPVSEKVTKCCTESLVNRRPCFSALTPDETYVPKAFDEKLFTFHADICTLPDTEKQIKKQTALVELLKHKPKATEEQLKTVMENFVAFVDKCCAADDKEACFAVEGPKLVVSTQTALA

Structure (SMILES) | C0 [4] [ng/mL] | AUC(0-t) at 24 h [6] [ng·h/mL] | AUMCt [8] [ng·h²/mL] | AUMC [9] [ng·h²/mL] | Vd [11] [L/kg] | Kb (Albumin [19]) | k el at 24 h [20] [s⁻¹] | CMC [23] [µg/mL] | Activity (MIN6 [1]) | Activity (Erythrocyte) | Activity (MIN6 [3]) | Activity (Rattus norvegicus [12]) | Activity (Rattus norvegicus [13]) | Activity (Rattus norvegicus [14]) | Activity (Rattus norvegicus [15]) | Activity (Rattus norvegicus [16]) | Activity (Rattus norvegicus [17]) | Activity (Rattus norvegicus [18]) | Activity (Rattus norvegicus [21]) | Activity (Rattus norvegicus [22]) | further results
CC(CCCCn1c(=O)c2c(ncn2C)n(C)c1=O)OC(=O)CCCCC1CCSS1 (configuration not stated) | 4120 | 13500 | 67500 | 77300 | 1.77 | 2.05 10^4L/mol | 0.000142 | 6.31 | Non-Toxic | Non-Toxic | Active | Active | Active | Active | Active | Active | Active | Active | Active | Active | t1/2 ([5]; 30 mg/kg, 24 h): 1.26 h; AUC [7]: 13838.8 ng·h/mL; MRT ([10]; 30 mg/kg, 24 h): 5.16 h; Activity (Rattus norvegicus [24]): inactive; Activity (Rattus norvegicus [25]): inactive
C[C@@H](O)CCCCn1c(=O)c2c(ncn2C)n(C)c1=O [LISOFYLLINE] |  |  |  |  |  | 6.32 10^4L/mol |  |  | Non-Toxic |  |  |  |  |  |  |  |  |  |  |  | C0 [29]: 16400 ng/mL; half-life [30]: 0.752 h; AUC(0-t) at 24 h [31]: 14700 ng·h/mL; AUC(0-inf) [32]: 14700 ng·h/mL; AUMCt [33]: 12100 ng·h²/mL; AUMC [34]: 12800 ng·h²/mL; MRT [35]: 0.818 h; Vd [36]: 0.962 L/kg; clearance [37]: 17 mL/min/kg; k el at 24 h [38]: 0.000257 s⁻¹; Activity (Rattus norvegicus [39]): Active; Activity (Rattus norvegicus [40]): Active; Activity (Rattus norvegicus [41]): Active

More lines, main results first:

C0 [4] [ng/mL] | AUC(0-t) at 24 h [6] [ng·h/mL] | AUMCt [8] [ng·h²/mL] | AUMC [9] [ng·h²/mL] | Vd [11] [L/kg] | Kb (Albumin [19]) | k el at 24 h [20] [s⁻¹] | CMC [23] [µg/mL] | Structure (SMILES) | Activity (MIN6 [1]) | Activity (Erythrocyte) | Activity (MIN6 [3]) | Activity (Rattus norvegicus [12]) | Activity (Rattus norvegicus [13]) | Activity (Rattus norvegicus [14]) | Activity (Rattus norvegicus [15]) | Activity (Rattus norvegicus [16]) | Activity (Rattus norvegicus [17]) | Activity (Rattus norvegicus [18]) | Activity (Rattus norvegicus [21]) | Activity (Rattus norvegicus [22]) | further results
4900 | 16200 | 77100 | 98700 | 2.59 | 2.7 10^4L/mol | 6.39e-05 | 0.81 | CCCCC/C=C/CC=CCCCCCCCC(=O)OC(C)CCCCn1c(=O)c2c(ncn2C)n(C)c1=O (configuration not stated) | Non-Toxic | Non-Toxic | Active | Active | Active | Active | Active | Active | Active | Active | Active | Active | Drug uptake [2]: Active; half-life [5]: 3.12 h; AUC [7]: 16984.11 ng·h/mL; MRT ([10]; Wistar, read-out: MRT): 6.55 h
267 | 3490 | 29900 | 24800 | 13.8 | 5.55 10^4L/mol | 4.72e-05 | 7.4 | CCCCCCCCCCCCCCCC(=O)OC(C)CCCCn1c(=O)c2c(ncn2C)n(C)c1=O (configuration not stated) | Non-Toxic | Non-Toxic | Active | Active | Active | Active | Active | Active | Active | Active | Active | Active | Drug uptake [2]: Active; half-life [5]: 3.59 h; AUC(0-inf) [7]: 3890 ng·h/mL; MRT ([10]; Wistar, read-out: MRT): 9.07 h; clearance [26]: 64.9 mL/min/kg; Activity (Rattus norvegicus [24]): Active; Activity (Rattus norvegicus [25]): Active; Activity (Albumin [27]): Active; Activity (Rattus norvegicus [28]): Active
4750 | 6110 | 30500 | 43200 | 15 | 6.34 10^4L/mol | 4.44e-05 | 7.58 | CCCCCCCCC=CCCCCCCCC(=O)OC(C)CCCCn1c(=O)c2c(ncn2C)n(C)c1=O (configuration not stated) | Non-Toxic | Non-Toxic | Active | Active | Active | Active | Active | Active | Active | Active | Active | Active | Drug uptake [2]: 56 ng; half-life [5]: 4.44 h; AUC(0-inf) [7]: 6640 ng·h/mL; MRT ([10]; Wistar, read-out: MRT): 7.91 h; clearance [26]: 40.3 mL/min/kg; Activity (Rattus norvegicus [24]): Active; Activity (Rattus norvegicus [25]): Active; Stability [42]: 9.74%; Activity (Rattus norvegicus [28]): Active
